In ChEMBL document CHEMBL4765421, “Synthesis of natural 3'-Prenylchalconaringenin and biological evaluation of ameliorating non-alcoholic fatty liver disease and metabolic syndrome” (Eur J Med Chem, 2020):
Calls of active or inactive are those of the source. The calls are words filed in the database; no cut-off is given here.

Assays:
[1] = tested on: 3T3-L1; test: Hypolipidemic activity in mouse 3T3-L1 preadipocytes assessed as reduction in lipid content at 5 uM by Oil Red O staining based assay relative to control; assay type: functional; parameters: scale not given: the % may be the effect or the level left
[2] = tested on: Mus musculus; test: Hypolipidemic activity in tyloxapol-induced Kunming mouse model of hyperlipidemia assessed as perirenal white adipose tissue index at 100 mg/kg, po measured after 24 hrs (reference value: 18.14 +/- 1.44); assay type: functional
[3] = tested on: Mus musculus; test: In vivo effect on PPAR signaling in tyloxapol-induced Kunming mouse model of hyperlipidemia assessed as increase in PPARalpha expression in white adipose tissue at 50 to 100 mg/kg, po measured after 24 hrs by Western blot analysis; assay type: functional, organism-based; settings: dose 50-100 mg/kg
[4] = tested on: Mus musculus; test: Hypolipidemic activity in tyloxapol-induced Kunming mouse model of hyperlipidemia at 50 to 100 mg/kg, po measured after 24 hrs by Masson's trichrome staining based assay; assay type: functional, organism-based; settings: dose 50-100 mg/kg
[5] = tested on: Mus musculus; test: Hypolipidemic activity in tyloxapol-induced Kunming mouse model of hyperlipidemia assessed as reduction in liver LDL-C level administered orally measured after 24 hrs; assay type: functional, organism-based
[6] = tested on: Mus musculus; test: In vivo induction of AMPK in tyloxapol-induced Kunming mouse model of hyperlipidemia assessed as increase in ACC phosphorylation in liver at 50 to 100 mg/kg, po measured after 24 hrs by Western blot analysis; assay type: functional, organism-based; settings: dose 50-100 mg/kg
[7] = tested on: Mus musculus; test: In vivo effect on PPAR signaling in tyloxapol-induced Kunming mouse model of hyperlipidemia assessed as increase in PPARalpha expression in liver at 50 to 100 mg/kg, po measured after 24 hrs by Western blot analysis; assay type: functional, organism-based; settings: dose 50-100 mg/kg
[8] = tested on: Mus musculus; test: In vivo induction of AMPK in tyloxapol-induced Kunming mouse model of hyperlipidemia assessed as increase in CPT-1A phosphorylation in white adipose tissue at 50 to 100 mg/kg, po measured after 24 hrs by Western blot analysis; assay type: functional, organism-based; settings: dose 50-100 mg/kg
[9] = tested on: Mus musculus; test: In vivo effect on PPAR signaling in tyloxapol-induced Kunming mouse model of hyperlipidemia assessed as increase in PPARbeta expression in liver at 50 to 100 mg/kg, po measured after 24 hrs by Western blot analysis; assay type: functional, organism-based; settings: dose 50-100 mg/kg
[10] = tested on: Mus musculus; test: Hypolipidemic activity in tyloxapol-induced Kunming mouse model of hyperlipidemia assessed as reduction in liver MPO level at 50 to 100 mg/kg, po measured after 24 hrs; assay type: functional, organism-based; settings: dose 50-100 mg/kg
[11] = tested on: HepG2; test: Hypolipidemic activity in oleic, palmitic, linoleic and arachidonic acid 29:47:18:6 (v/v)-induced hyperlipidemia in human HepG2 cells assessed as reduction in triglyceride content; assay type: functional, cell-based
[12] = tested on: Mus musculus; test: Hypolipidemic activity in tyloxapol-induced Kunming mouse model of hyperlipidemia assessed as liver index at 50 mg/kg, po measured after 24 hrs (reference value: 65.00 +/- 0.87); assay type: functional
[13] = tested on: HepG2; test: Hypolipidemic activity in oleic, palmitic, linoleic and arachidonic acid 29:47:18:6 (v/v)-induced hyperlipidemia in human HepG2 cells assessed as reduction in lipid content at 7.5 uM by Oil Red O staining based assay relative to control; assay type: functional; parameters: scale not given: the % may be the effect or the level left
[14] = tested on: Mus musculus; test: In vivo induction of AMPK in tyloxapol-induced Kunming mouse model of hyperlipidemia assessed as decrease in FAS expression in white adipose tissue at 50 to 100 mg/kg, po measured after 24 hrs by Western blot analysis; assay type: functional, organism-based; settings: dose 50-100 mg/kg
[15] = tested on: Mus musculus; test: Hypolipidemic activity in tyloxapol-induced Kunming mouse model of hyperlipidemia assessed as kidney index at 50 mg/kg, po measured after 24 hrs (reference value: 11.20 +/- 0.58); assay type: functional
[16] = tested on: 3T3-L1; test: Activation of AMPK in mouse 3T3-L1 matured adipocytes assessed as increase in AMPK phosphorylation at 1 uM by Western blot analysis relative to control; assay type: cell-based; settings: filed as activator
[17] = tested on: Mus musculus; test: Hypolipidemic activity in tyloxapol-induced Kunming mouse model of hyperlipidemia assessed as reduction in serum lipid level at 50 to 100 mg/kg, po measured after 24 hrs by macroscopic analysis; assay type: functional, organism-based; settings: dose 50-100 mg/kg
[18] = tested on: 3T3-L1; test: Activation of AMPK in mouse 3T3-L1 preadipocytes assessed as increase in ACC phosphorylation at 0.1 to 15 uM by Western blot analysis; assay type: cell-based; settings: filed as activator, dose 0.1-15 µM
[19] = tested on: 3T3-L1; test: Hypolipidemic activity in mouse 3T3-L1 mature adipocytes assessed as reduction in lipid content at 15 uM by Oil Red O staining based assay relative to control; assay type: functional; parameters: scale not given: the % may be the effect or the level left
[20] = tested on: HepG2; test: Hypolipidemic activity in oleic, palmitic, linoleic and arachidonic acid 29:47:18:6 (v/v)-induced hyperlipidemia in human HepG2 cells assessed as reduction in lipid content at 20 uM by Oil Red O staining based assay relative to control; assay type: functional; parameters: scale not given: the % may be the effect or the level left
[21] = tested on: Mus musculus; test: Hypolipidemic activity in tyloxapol-induced Kunming mouse model of hyperlipidemia assessed as increase in serum SOD level at 100 mg/kg, po measured after 24 hrs; assay type: functional, organism-based
[22] = tested on: Mus musculus; test: In vivo induction of AMPK in tyloxapol-induced Kunming mouse model of hyperlipidemia assessed as increase in AMPKalpha phosphorylation in white adipose tissue at 50 to 100 mg/kg, po measured after 24 hrs by Western blot analysis; assay type: functional, organism-based; settings: dose 50-100 mg/kg
[23] = tested on: Mus musculus; test: In vivo induction of AMPK in tyloxapol-induced Kunming mouse model of hyperlipidemia assessed as decrease in SREBP1-C expression in white adipose tissue at 50 to 100 mg/kg, po measured after 24 hrs by Western blot analysis; assay type: functional, organism-based; settings: dose 50-100 mg/kg
[24] = tested on: Mus musculus; test: In vivo effect on PPAR signaling in tyloxapol-induced Kunming mouse model of hyperlipidemia assessed as increase in mTOR phosphorylation in white adipose tissue administered orally measured after 24 hrs by Western blot analysis; assay type: functional, organism-based
[25] = tested on: Mus musculus; test: Hypolipidemic activity in tyloxapol-induced Kunming mouse model of hyperlipidemia assessed as reduction in serum ALT level administered orally measured after 24 hrs; assay type: functional, organism-based
[26] = tested on: Mus musculus; test: Hypolipidemic activity in tyloxapol-induced Kunming mouse model of hyperlipidemia assessed as perirenal white adipose tissue index at 50 mg/kg, po measured after 24 hrs (reference value: 18.14 +/- 1.44); assay type: functional
[27] = tested on: 3T3-L1; test: Hypolipidemic activity in mouse 3T3-L1 mature adipocytes assessed as reduction in lipid content at 1 uM by Oil Red O staining based assay relative to control; assay type: functional; parameters: scale not given: the % may be the effect or the level left
[28] = tested on: Mus musculus; test: Hypolipidemic activity in tyloxapol-induced Kunming mouse model of hyperlipidemia assessed as epididymis white adipose tissue index at 100 mg/kg, po measured after 24 hrs (reference value: 23.43 +/- 3.10); assay type: functional
[29] = tested on: Mus musculus; test: Hypolipidemic activity in tyloxapol-induced Kunming mouse model of hyperlipidemia assessed as reduction in serum triglyceride level administered orally measured after 24 hrs; assay type: functional, organism-based
[30] = tested on: 3T3-L1; test: Hypolipidemic activity in mouse 3T3-L1 mature adipocytes assessed as reduction in triglyceride content; assay type: functional, cell-based
[31] = tested on: Mus musculus; test: Hypolipidemic activity in tyloxapol-induced Kunming mouse model of hyperlipidemia assessed as reduction in liver triglyceride level administered orally measured after 24 hrs; assay type: functional, organism-based
[32] = tested on: HepG2; test: Activation of AMPK in oleic, palmitic, linoleic and arachidonic acid 29:47:18:6 (v/v)-induced human HepG2 cells assessed as increase in ACC phosphorylation at 1 uM by Western blot analysis relative to control
[33] = tested on: Mus musculus; test: Hypolipidemic activity in tyloxapol-induced Kunming mouse model of hyperlipidemia assessed as reduction in lipid level in liver at 50 to 100 mg/kg, po measured after 24 hrs by Oil Red O staining based assay; assay type: functional, organism-based; settings: dose 50-100 mg/kg

CC(C)=CCC/C(C)=C/Cc1c(O)cc(O)c(C(=O)/C=C/c2ccc(O)cc2)c1O
Activity [1]: 49.29%
Activity_index [2]: 9.83
Activity [3]: Active
Activity [4]: Active
Activity [5]: Dose-dependent effect
Activity [6]: Active
Activity [7]: Active
Activity [8]: Active
Activity [9]: Active
Activity [10]: Active
Activity [11]: Dose-dependent effect
Activity_index [12]: 55.64
Activity [13]: 43.86%
Activity [14]: Active
Activity_index [15]: 9.46
Activity [16]: 49%
Activity [17]: Active
Activity [18]: Active
Activity [19]: 72.12%
Activity [20]: 66.31%
Activity [21]: Active
Activity [22]: Active
Activity [23]: Active
Activity [24]: Dose-dependent effect
Activity [25]: Dose-dependent effect
Activity_index [26]: 9.52
Activity [27]: 39.16%
Activity_index [28]: 12.35
Activity [29]: Dose-dependent effect
Activity [30]: Dose-dependent effect
Activity [31]: Dose-dependent effect
Activity [32]: 31.7%
Activity [33]: Active
